Measured values as given in patent US7365096B2, “Methods for selectively inhibiting Janus tyrosine kinase 3 (Jak3)” (Board of Regents, The University of Texas System, priority 2002, dated 2008).
Entries after “also recorded” stand apart in the source; their conditions may differ. Like-named read-outs stand apart in the source and are kept apart here.

Columns and labels:
[1] = test system: Jak2/Stat5a signaling pathway; assay: Prolactin-stimulated Jak2/Stat5a signaling in rat Nb2 cells (phosphotyrosine Western blot); assay type: cell-based; settings: increasing concentration, PRL stimulated
Method: Solubilization of membrane proteins, immunoprecipitation, and Western blot analysis. Frozen cell pellets were thawed on ice and solubilized in 1% TX-100 lysis buffer (10^8 cells/ml) and clarified by centrifugation, as previously described.^16 For human T-cells, supernates were incubated rotating end over end for 2 hours at 4° C. with either 5 μl/ml polyclonal rabbit antisera raised against peptides derived from the unique COOH-termini of Jak3 (amino acid [a.a.] 1104-1124), carboxyl termini of human Stat5a (a.a. 775-794) or Stat5b (a.a. 777-787).^26 Ab and immunoprecipitated proteins were captured by incubation for 30 minutes with Protein A-Sepharose beads (Pharmacia, Piscataway, N.J.), sedimented for purification, and eluted by boiling in 2×SDS-sample buffer (20% Glycerol, 10% 2-Mercaptoethanol, 4.6% SDS, 0.004% Bromophenol blue in 0.125 M Tris pH 6.8) for 4 minutes. For phosphoMapk assays, approximately 25 μg of total cell lysate was dissociated in SDS-sample buffer and separated on 10% (all others on 7.5%) SDS-PAGE under reducing conditions. […]
In FIG. 9A, it can be seen that NC1153 inhibits Jak3 driven transcription factor-Stat5a/b in PHA activated T-cells treated with increasing concentrations of NC1153 in a dose dependent manner as measured via EMSA analysis (upper panel). […]

[2] = biological target: Fyn (Homo sapiens, UniProt P06241); assay: Tyrosine phosphorylation of activated Fyn in YT cells; assay type: cell-based; set-up: Cellular extracts were immunoprecipitated with anti-Fyn or anti-Lck antibodies; endogenous in cells; host or cells: YT cells; settings: 1-100 μM, 2 hours
Chain of Fyn (P06241 whole entry): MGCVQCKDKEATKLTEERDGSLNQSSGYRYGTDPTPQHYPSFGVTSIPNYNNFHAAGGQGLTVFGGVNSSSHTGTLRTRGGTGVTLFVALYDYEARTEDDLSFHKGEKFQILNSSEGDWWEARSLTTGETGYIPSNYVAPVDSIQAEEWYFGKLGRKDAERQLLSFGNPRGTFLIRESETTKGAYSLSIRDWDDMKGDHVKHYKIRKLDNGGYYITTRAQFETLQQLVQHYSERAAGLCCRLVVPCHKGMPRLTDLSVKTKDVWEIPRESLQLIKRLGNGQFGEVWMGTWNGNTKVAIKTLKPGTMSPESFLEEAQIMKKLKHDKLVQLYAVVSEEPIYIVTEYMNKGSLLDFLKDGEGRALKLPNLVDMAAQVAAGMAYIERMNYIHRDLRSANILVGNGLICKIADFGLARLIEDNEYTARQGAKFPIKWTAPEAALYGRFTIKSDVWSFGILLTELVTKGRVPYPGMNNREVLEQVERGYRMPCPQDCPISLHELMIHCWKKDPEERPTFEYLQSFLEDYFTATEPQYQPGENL

[3] = test system: LEW kidney allografts; assay: Rat kidney allograft survival (LEW donors to ACI recipients); assay type: in vivo
[4] = test system: γc/Jak3-dependent PHA-activated human T cells; assay: Proliferation of PHA-activated human T cells ([3H]-thymidine); assay type: cell-based; settings: for IC50: Homo sapiens
Method: Cell culture and treatment. The rat T-cell line Nb2-11c, originally developed by Dr. Peter Gout (Vancouver, Canada), was grown in RPMI-1640 with 10% fetal calf serum (Intergen, cat. no. 1020-90), 2 mM L-glutamine, 5 mM HEPES, pH 7.3, and penicillin-streptomycin (50 IU/ml and 50 μg/ml, respectively), at 37° C./5% CO2. Freshly explanted normal human T lymphocytes purified by isocentrifugation (Ficoll®; EM Science, Gibbstown, N.J.) were phytohemagglutinin (PHA)-activated for 72 hours as previously described.^23 T lymphocytes were made quiescent by washing and incubating for 24 hours in RPMI-1640 medium containing 1% fetal calf serum before exposure to cytokines. […] The Mannich base 649641P (NC1153) was generously provided by Dr. Jonathan Dimmock College of Pharmacy, University of Saskatchewan, Saskatoon, Saskatchewan, Canada. All cells were then stimulated with 1 nM recombinant human IL-2 (Hoffman-LaRoche, Basel, Switzerland), IL4 or IL7 (PeproTech), or ovine prolactin (PRL) supplied by the National Hormone and Pituitary Program, National Institute of Diabetes, Digestive, and Kidney Disease (Bethesda, Md.), at 37° C. Cell pellets were frozen at −70° C.
Proliferation assays. Quiescent human primary T-cells, YT or rat Nb2-11c T-cells (5.0×10^4/well) were plated in flat-bottom, 96-well microtiter plates in 200 μl of quiescent media in the absence or presence of 1 nM IL-2, -4, -7 (PeproTech, Rock Hill, N.J.), or PRL. Next, cells were treated for 16 hours with the Mannich base drug and then pulsed for 4 hours with [^3H]-thymidine (0.5 μCi/200 μl) and harvested onto fiberglass filters. [^3H]-thymidine incorporation was analyzed by liquid scintillation counting as previously described,^23 or using standard techniques that are well known in the art.

[5] = test system: LEW donor or third-party BUF heart allografts; assay: Transplantation tolerance: heart allograft challenge of long-term surviving recipients; assay type: in vivo, rat; settings: recipients made tolerant with NC1153; n=3
Method: ACI rat recipients of LEW kidney allografts were treated for 14 days with NC1153 delivered by daily oral gavage. […] ACI rat recipients of LEW kidney allografts were treated for 7 days and thereafter 3×/week up to 90 days with 160 mg/kg NC1153 delivered by daily oral gavage. […] The mechanism of tolerance was examined when irradiated (400 rads) ACI recipients of LEW heart allografts were adoptively transferred with 30×10^6 purified T cells from tolerant recipients.

[6] = 160 mg/kg NC1153 oral gavage 7 days, thereafter 3×/week up to 90 days

## CN(C)CC1CCCCCCCCCC(CN(C)C)C1=O (mixture of isomers) [649641P (NC1153)]
[1]
  Jak2/Stat5a activation by prolactin: fails to inhibit
[2]
  activity (tyrosine phosphorylation) of Fyn: no effect; also recorded: does not block the activity; also recorded: did not inhibit
[3]; [6]
  survival times of recipients surviving beyond 90 days: exceeding 200 days
  treated recipients surviving beyond treatment of 90 days: 75%
[3]; 649641P (NC1153) 240 mg/kg/day p.o. for 14 days
  MST: > 60 days
[4]; T-cell, 1 nM IL-4, read-out: IC50, IL4 driven cell growth
  IC50: ~2500 nM
[4]; T-cell, 1 nM IL-7, read-out: IC50, IL7 driven cell growth
  IC50: ~2500 nM
[4]; IL-2 driven T-cell growth, 16 hours drug, [3H]-thymidine, read-out: IC50, disrupting cell growth
  IC50: ~2500 nM
[4]; dose dependent
  IL2, IL4 or IL7 driven growth normalized to untreated controls: inhibits IL2, IL4 or IL7 driven growth
[5]
  survival of LEW donor heart allografts in long-term surviving recipients: > 100 days
  survival of third-party BUF heart allografts in long-term surviving recipients: 7.0±1.0 days
